Active and inactive are the calls of the source. The rule behind the calls is not given here.
Columns and labels:
HEK293 [1] = assay: Prodrug activation in human HEK293 cells assessed as enhancement of cytotoxicity at >200 uM in presence of 3 mM AAPH measured after 48 hrs by Alamar blue assay; format: functional, cell-based; details: dose microM >200, time 48.0 hrs
U-251 [2] = assay: Cytotoxicity against cold atmospheric plasma (CAP)-treated human U-251MG cells assessed as decrease in cell viability treated with CAP for 30 secs followed by incubated with compound for 48 hrs by alamar blue assay; format: functional, cell-based; details: U-251, 48 h
[3] = Prodrug activation in human U-251MG cells assessed as increase in cold atmospheric plasma (CAP) induced ROS-mediated cytotoxicity treated with CAP for 40 secs followed by incubated with compound for 48 hrs in presence of NAC by alamar blue assay; format: functional, cell-based; details: U-251, 48 h
[4] = Prodrug activation in human U-251MG cells assessed as increase in cold atmospheric plasma (CAP) induced ROS-mediated cytotoxicity treated with CAP for 30 secs in DMSO followed by incubated with compound for 48 hrs by alamar blue assay; format: functional, cell-based; details: U-251, 48 h
[5] = Prodrug activation in human HEK293 cells assessed as decrease in cell viability at low concentrations in presence of AAPH measured after 48 hrs by Alamar blue assay; format: functional
U-251 [6] = assay: Prodrug activation in human U-251MG cells assessed as enhancement of cytotoxicity at >200 uM in presence of 3 mM AAPH measured after 48 hrs by Alamar blue assay; format: functional, cell-based; details: dose microM >200, time 48.0 hrs
U-251 [7] = assay: Cytotoxicity against human U-251MG cells assessed as reduction in cell viability at 0.3 uM measured after 48 hrs by alamar blue assay relative to control; format: functional
U-251 [8] = assay: Cytotoxicity against human U-251MG cells assessed as reduction in cell viability at 290 uM measured after 48 hrs by alamar blue assay relative to control; format: functional
U-251 [9] = assay: Prodrug activation in human U-251MG cells assessed as cell cytotoxicity treated with prodrug in overnight storage cold atmospheric plasma (CAP) activated culture medium for 48 hrs by Alamar blue assay; format: functional, cell-based
U-251 [10] = assay: Cytotoxicity against human U-251MG cells assessed as reduction in cell viability at 2000 uM measured after 48 hrs by alamar blue assay relative to control; format: functional
[11] = Prodrug activation in human U-251MG cells assessed as increase in cold atmospheric plasma (CAP) induced ROS-mediated cytotoxicity treated with CAP for 20 secs followed by incubated with compound for 48 hrs by alamar blue assay; format: functional, cell-based; details: U-251, 48 h
U-251 [12] = assay: Cytotoxicity against human U-251MG cells assessed as distinct morphological changes at 0.3 to 2000 uM measured after 48 hrs by Live/dead staining based fluorescent analysis; format: functional, cell-based; details: dose 0.3-2000 µM
U-251 [13] = assay: Cytotoxicity against human U-251MG cells assessed as decrease in cell viability by measuring combination index treated with cold atmospheric plasma for 20 secs followed by incubated with compound for 48 hrs by alamar blue assay; format: functional
U-251 [14] = assay: Cytotoxicity against human U-251MG cells assessed as increase in dead cells stained with red (EthD-1) at 0.3 to 2000 uM measured after 48 hrs by Live/dead staining based fluorescent analysis; format: functional, cell-based; details: dose 0.3-2000 µM
U-251 [15] = assay: Cytotoxicity against human U-251MG cells assessed as decrease in cell viability by measuring combination index treated with cold atmospheric plasma for 30 secs followed by incubated with compound for 48 hrs by alamar blue assay; format: functional
U-251 [16] = assay: Cytotoxicity against human U-251MG cells assessed as reduction in cell viability measured after 48 hrs by alamar blue assay; format: functional, cell-based; details: U-251, 48 h
[17] = Prodrug activation in human U-251MG cells assessed as increase in cold atmospheric plasma (CAP) induced ROS-mediated cytotoxicity treated with CAP for 30 secs followed by incubated with compound for 48 hrs by alamar blue assay; format: functional, cell-based; details: U-251, 48 h
U-251 [18] = assay: Cytotoxicity against human U-251MG cells assessed as decrease in cell viability by measuring combination index treated with cold atmospheric plasma for 40 secs followed by incubated with compound for 48 hrs by alamar blue assay; format: functional
[19] = Prodrug activation in human U-251MG cells assessed as increase in cold atmospheric plasma (CAP) induced ROS-mediated cytotoxicity treated with CAP for 40 secs followed by incubated with compound for 48 hrs by alamar blue assay; format: functional, cell-based; details: U-251, 48 h
U-251 [20] = assay: Prodrug activation in CAP treated human U-251MG cells assessed as cell cytotoxicity incubated with cold atmospheric plasma (CAP) treated culture medium for 0 to 5 hrs followed by incubation with fresh medium containing prodrug for 48 hrs by Alamar blue assay; format: functional, cell-based
U-251 [21] = assay: Cytotoxicity against human U-251MG cells assessed as decrease in cell viability by measuring combination index treated with cold atmospheric plasma for 10 secs followed by incubated with compound for 48 hrs by alamar blue assay; format: functional
[22] = Prodrug activation in human U-251MG cells assessed as increase in cold atmospheric plasma (CAP) induced ROS-mediated cytotoxicity treated with CAP for 10 secs followed by incubated with compound for 48 hrs by alamar blue assay; format: functional, cell-based; details: U-251, 48 h
U-251 [23] = assay: Cytotoxicity against human U-251MG cells assessed as decrease in live cells stained with green (Calcein-AM) at 0.3 to 2000 uM measured after 48 hrs by Live/dead staining based fluorescent analysis; format: functional, cell-based; details: dose 0.3-2000 µM
HEK293 [24] = assay: Prodrug activation in human HEK293 cells assessed as enhancement of cytotoxicity at >200 uM combined with 0.5 mM AAPH measured after 48 hrs by Alamar blue assay; format: functional, cell-based; details: dose microM >200, time 48.0 hrs
[25] = Prodrug activation in human U-251MG cells assessed as decrease in cell viability at low concentrations in presence of AAPH measured after 48 hrs by Alamar blue assay; format: functional
HEK293 [26] = assay: Cytotoxicity against human HEK293 cells assessed as reduction in cell viability measured after 48 hrs by alamar blue assay; format: functional, cell-based; details: HEK293, 48 h
[27] = Prodrug activation in human U-251MG cells assessed as increase in cold atmospheric plasma (CAP) induced ROS-mediated cytotoxicity treated with CAP for 10 mins in DMSO followed by incubated with compound for 48 hrs by alamar blue assay; format: functional, cell-based
U-251 [28] = assay: Prodrug activation in human U-251MG cells assessed as enhancement of cytotoxicity at >200 uM combined with 0.5 mMAAPH measured after 48 hrs by Alamar blue assay; format: functional, cell-based; details: dose microM >200, time 48.0 hrs
U-251 [29] = assay: Cytotoxicity against human U-251MG cells assessed as decrease in cell viability incubated for 6 days by alamar blue assay; format: functional, cell-based; details: U-251, 144 h
U-251 [30] = assay: Cytotoxicity against cold atmospheric plasma (CAP)-treated human U-251MG cells assessed as decrease in cell viability treated with CAP for 15 secs followed by incubated with compound for 6 days by alamar blue assay; format: functional, cell-based; details: U-251, 144 h
U-251 [31] = assay: Cytotoxicity against cold atmospheric plasma (CAP)-treated human U-251MG cells assessed as decrease in cell viability treated with CAP for 30 secs followed by incubated with compound for 6 days by alamar blue assay; format: functional, cell-based; details: U-251, 144 h
U-251 [32] = assay: Prodrug activation in human U-251MG cells assessed as enhancement of cytotoxicity pretreated with prodrug followed by cold atmospheric plasma (CAP) treatment for 10 to 40 sec in culture medium and measured after 48 hrs by alamar blur assay; format: functional, cell-based

Cc1cc2[nH]c(-c3ccccc3)cc(=O)n2n1
Activity (HEK293 [1]): inactive | IC50 (U-251 [2]): 56.8 µM | IC50 [3]: 95.7 µM | IC50 [4]: 215 µM | Activity [5]: 50% | Activity (U-251 [6]): inactive | Activity (U-251 [7]): 100% | Activity (U-251 [8]): 50% | Activity (U-251 [9]): inactive | Activity (U-251 [10]): 10% | IC50 [11]: 31.1 µM | Activity (U-251 [12]): Active | CI (U-251 [13]): 0.3352 | Activity (U-251 [14]): Active | CI (U-251 [15]): 0.4756 | IC50 (U-251 [16]): 293 µM | IC50 [17]: 39.2 µM | CI (U-251 [18]): 0.578 | IC50 [19]: 37.1 µM | Activity (U-251 [20]): inactive | CI (U-251 [21]): 0.311 | IC50 [22]: 54.4 µM | Activity (U-251 [23]): Active | Activity (HEK293 [24]): inactive | Activity [25]: 50% | IC50 (HEK293 [26]): 123 µM | IC50 [27]: 246 µM | Activity (U-251 [28]): inactive

Cn1nnc2c(C(N)=O)ncn2c1=O [TEMOZOLOMIDE]
IC50 (U-251 [29]): 12.7 µM | IC50 (U-251 [30]): 7.28 µM | IC50 (U-251 [31]): 6.43 µM

Cc1ccc(-c2cc3[nH]c(-c4ccccc4)cc(=O)n3n2)cc1
IC50 (U-251 [2]): 86.7 µM | IC50 (U-251 [16]): 148 µM

O=c1cc(-c2ccccc2)[nH]c2cc(-c3ccc(F)cc3)nn12
IC50 (U-251 [2]): 44.4 µM | IC50 (U-251 [16]): 74.6 µM

CCCCc1cc2[nH]c(-c3cc(C(F)(F)F)cc(C(F)(F)F)c3)cc(=O)n2n1
IC50 (U-251 [2]): 11.4 µM | IC50 (U-251 [16]): 11.3 µM

CC(C)c1cc2[nH]c(-c3ccc([N+](=O)[O-])cc3)cc(=O)n2n1
IC50 (U-251 [2]): 12.9 µM | IC50 (U-251 [16]): 25.5 µM

CC(C)(C)c1cc2[nH]c(-c3cc(C(F)(F)F)cc(C(F)(F)F)c3)cc(=O)n2n1
IC50 (U-251 [2]): 462 µM | IC50 (U-251 [16]): 367 µM

COc1ccc(-c2cc(=O)n3nc(-c4ccccc4)cc3[nH]2)cc1
IC50 (U-251 [2]): 5670 µM | IC50 (U-251 [16]): 13.4 µM

O=c1cc(-c2ccccc2)[nH]c2cc(-c3cccc(Cl)c3)nn12
IC50 (U-251 [2]): 38.2 µM | IC50 (U-251 [16]): 23.3 µM

Cc1cc(C)cc(-c2cc(=O)n3nc(C(C)C)cc3[nH]2)c1
IC50 (U-251 [2]): 609 µM | IC50 (U-251 [16]): 502 µM

CC(C)(C)c1cc2[nH]c(C(C)(C)C)cc(=O)n2n1
IC50 (U-251 [2]): 62.4 µM | IC50 (U-251 [16]): 941 µM

O=c1cc(-c2ccccc2)[nH]c2cc(-c3ccccc3)nn12
IC50 (U-251 [2]): 73.6 µM | IC50 (U-251 [16]): 77.7 µM

COc1ccc(-c2cc(=O)n3nc(C(C)C)cc3[nH]2)cc1
IC50 (U-251 [2]): 127 µM | IC50 (U-251 [16]): 197 µM

CC(C)c1cc2[nH]c(-c3cc(C(F)(F)F)cc(C(F)(F)F)c3)cc(=O)n2n1
IC50 (U-251 [2]): 19 µM | IC50 (U-251 [16]): 42.9 µM

Cc1c(-c2ccccc2)[nH]c2cc(C(C)C)nn2c1=O
IC50 (U-251 [2]): 86.3 µM | IC50 (U-251 [16]): 137 µM

Cc1cc(C)cc(-c2cc(=O)n3nc(C)cc3[nH]2)c1
Activity (U-251 [32]): inactive

Source: ChEMBL document CHEMBL4842349, “Enhanced pyrazolopyrimidinones cytotoxicity against glioblastoma cells activated by ROS-Generating cold atmospheric plasma” (Eur J Med Chem, 2021)
